Experimental data as given in US20240238290A1, “USE OF COMPLEMENT FACTOR D INHIBITOR FOR TREATMENT OF GENERALIZED MYASTHENIA GRAVIS” (Alexion Pharmaceuticals, Inc., priority 2021, published 2024).

How the values were obtained:
[1] = Phase 1 single ascending and multiple ascending dose studies, PK; format: in vivo, human; conditions: for PK exposures versus dose: healthy volunteers
FD (complement factor D) = FD (complement factor D) (Homo sapiens, UniProt P00746); experiment: Inhibition of factor D
FD (complement factor D), sequence (P00746 26-253): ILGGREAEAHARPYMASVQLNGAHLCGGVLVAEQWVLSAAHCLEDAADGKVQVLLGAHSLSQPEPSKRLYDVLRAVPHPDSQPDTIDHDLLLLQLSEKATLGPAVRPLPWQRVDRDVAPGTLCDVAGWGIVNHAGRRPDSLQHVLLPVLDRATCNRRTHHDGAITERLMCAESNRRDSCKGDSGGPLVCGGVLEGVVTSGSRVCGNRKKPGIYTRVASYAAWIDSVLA

[2] = Safety and safety margin of multiple dose regimens versus NOAEL exposures from nonclinical chronic toxicology studies; format: in vivo, human; conditions: multiple dose study
Protocol: (§1) In addition, both dosage regimens provided complete (>90%) and sustained inhibition of AP activity throughout the 12-hour dosing interval. Therefore, 120 mg BID is selected as the minimum therapeutic dosage.

[3] = system: complement alternative pathway (AP) activity; experiment: AP inhibition in the AP Wieslab assay (PD), Phase 1 healthy volunteer studies; format: in vivo, human
Protocol: as §1

plasma Bb = experiment: Biomarkers of AP activity in vivo (plasma Bb levels)

CC(=O)c1nn(CC(=O)N2[C@H](C(=O)Nc3nc(Br)ccc3C)C[C@@]3(C)C[C@@H]23)c2ccc(-c3cnc(C)nc3)cc12 [Compound 1, vemircopan]
variability in the PK and PD data and PK/PD relationship ([1]; Phase 1 healthy volunteers): large variabilities
PK exposures versus dose ([1]; following single doses): increased dose proportionally
PK exposures versus dose ([1]; multiple doses at steady state, 40 mg BID to 200 mg BID): greater than dose proportional manner
inhibition of FD (FD (complement factor D)): potent inhibitor
safety and effectiveness of dosage regimen ([2]; 120 mg BID): safe and effective
safety margin in AUC0-24 over exposures at NOAEL ([2]; 120 mg BID): ≥ 10 fold
safety margin in Cmax over exposures at NOAEL ([2]; 120 mg BID): ≥ 10 fold
safety and effectiveness of dosage regimen ([2]; 200 mg BID): safe and effective
safety margin in AUC0-24 over exposures at NOAEL ([2]; 200 mg BID): ≥ 10 fold
safety margin in Cmax over exposures at NOAEL ([2]; 200 mg BID): ≥ 10 fold
inhibition at 120 mg ([3]; Homo sapiens, 120 mg BID, sustained throughout the 12-hour dosing interval): > 90%
inhibition at 200 mg ([3]; Homo sapiens, 200 mg BID, sustained throughout the 12-hour dosing interval): > 90%
PD activity as determined by AP inhibition in the AP Wieslab assay ([3]; healthy volunteers, Phase 1): increased with increasing exposure
inhibition of complement AP activity in vivo ([3]; in vivo): dose dependent inhibition
plasma Bb levels following administration (plasma Bb): significant dose-dependent reductions
